{
  "source": "patent US20130059787A1",
  "about": "“METHODS OF USING HUMAN PROTEIN KINASE C DELTA VIII AS A BIOMARKER” (UNITED STATES DEPARTMENT OF VETERAN AFFAIRS, priority 2010, published 2013)",
  "key": {"PKCδI mRNA": {"test_system": "PKCδI mRNA", "experiment": "Quantitative real-time RT-PCR (SYBR Green) in primary human neuronal cells from hippocampus", "type": "cell-based", "conditions": "RA about 10 μM, about 24 h", "text": "(§1) FIG. 1 is a series of images illustrating the alternative splice site in human PKC δ. (a) schematic of alternative 5′ splice site selection in human PKCδ pre-mRNA exon 10 that results in the generation of PKCδI mRNA and PKCδVIII mRNA, which differ by about 93 bp in the V3 hinge region. RA promotes expression of PKCδVIII mRNA. SSI: 5′ splice site I; SSII: 5′ splice site II. (b) schematic of the primers specific for PKC δI and PKC δVIII used in real time RT-PCR such that they span the exon-exon boundaries. (c) primary human neuronal cells from hippocampus were treated with or without RA (about 10 μM) for about 24 h. […]\n(§2) cDNA (about 2 μl) was amplified by real-time quantitative PCR using Syber (SYBR) Green with an ABI PRISM 7900 sequence detection system (PE Applied Biosystems, Foster City, Calif.) as described previously to quantify absolute levels of PKCδI and PKCδVIII mRNA in the samples (Jiang, K., Apostolatos, A. H., Ghansah, T., Watson, J. E., Vickers, T., Cooper, D. R., Epling-Burnette, P. K., and Patel, N. A. (2008) Biochemistry 47, 787-797). […]\n(§3) sense primer 5′-[…]-3′(SEQ ID No: 6) and antisense primer 5′-[…]-3′ (SEQ ID No: 7). […] Absolute quantification of mRNA expression levels for PKCδI and PKCδVIII was calculated by normalizing the values to GAPDH. The results were analyzed with two-tailed Student's t test using PRISM4 statistical analysis software (GraphPad, San Diego, Calif.). […]"}, "PKCδVIII mRNA [1]": {"test_system": "PKCδVIII mRNA", "experiment": "Quantitative real-time RT-PCR (SYBR Green) in primary human neuronal cells from hippocampus", "type": "cell-based", "conditions": "RA about 10 μM, about 24 h", "text": "as §1, §2, §3"}, "PKCδVIII mRNA [2]": {"test_system": "PKCδVIII mRNA", "conditions": "RA about 24 h; Jiang et al. 2008; cited from earlier work"}},
  "data": [
    {"smiles": "CC1=C(/C=C/C(C)=C/C=C/C(C)=C/C(=O)O)C(C)(C)CCC1", "note": "[RA, all-trans-retinoic acid]", "values": [
      {"measurement": "absolute mRNA expression of PKCδI normalized to GAPDH", "setting": "PKCδI mRNA", "result": "remain constant"},
      {"measurement": "absolute mRNA expression of PKCδVIII normalized to GAPDH", "setting": "PKCδVIII mRNA [1]", "result": "increased"},
      {"measurement": "expression of PKCδVIII in NT2 cells", "setting": "PKCδVIII mRNA [2]", "result": "significantly increases"}
    ]}
  ]
}
